These results are taken from US10004701B2, “Methods and compositions for treating infection” (UNIVERSITY OF ROCHESTER, priority 2012, dated 2018).

Structures can show the parent of a compound that is named as a salt. Where two headings read alike, the source gives them in different places.

What all share (test): AK assay 384-well format, Prestwick library screening
Test [1] deals with E. cloacae. The format is cell-based, Enterobacter cloacae. As to conditions: for fold induction at 50 µM: Enterobacter cloacae, 3 h.
For test [2], the system named is S. aureus strain USA300-0114. The format is cell-based, Staphylococcus aureus. The following applies: for fold induction at 50 µM: Staphylococcus aureus, USA300, 3 h.
In test [3] the test system is E. faecium. The format is cell-based, Enterococcus faecium. As to conditions: for fold induction at 50 µM: Enterococcus faecium, 3 h.
In test [4] the test system is K. pneumoniae. The format is cell-based, Klebsiella pneumoniae. As to conditions: for fold induction at 50 µM: Klebsiella pneumoniae, 3 h.
For test [5], the system named is P. aeruginosa. The format is cell-based, Pseudomonas aeruginosa. The following applies: for fold induction at 50 µM: Pseudomonas aeruginosa, 3 h.
Test [6] relates to A. baumannii strain 98-37-09. The format is cell-based, Acinetobacter baumannii. As to conditions: for fold induction at 50 µM: Acinetobacter baumannii, 983709, 3 h.
Test [7] relates to E. coli. The format is cell-based, Escherichia coli. As to conditions: 50 μM final drug concentration; for fold induction at 50 µM: Escherichia coli, 3 h.
Where [8] appears, read: 50 μM final drug concentration, […].

Consider `NS(=O)(=O)c1cc2c(cc1Cl)N=CNS2(=O)=O` [Chlorothiazide], for which the fold induction at 50 µM is 0.9 in test [1] (50 μM final drug concentration, 384-well format, cutoff for positive-scoring molecules 3-fold increase, read-out: AK-based Prestwick Library Screening Results, E. cloacae (increase in extracellular AK activity)); 0.8 in test [2] (50 μM final drug concentration, 384-well format, cutoff for positive-scoring molecules 3-fold increase, read-out: AK-based Prestwick Library Screening Results, S. aureus (increase in extracellular AK activity)); 1 in test [3] (50 μM final drug concentration, 384-well format, cutoff for positive-scoring molecules 3-fold increase, read-out: AK-based Prestwick Library Screening Results, E. faecium (increase in extracellular AK activity)); 0.7 in test [4] (50 μM final drug concentration, 384-well format, cutoff for positive-scoring molecules 3-fold increase, read-out: AK-based Prestwick Library Screening Results, K. pneumoniae (increase in extracellular AK activity)); 0.9 in test [5] (50 μM final drug concentration, 384-well format, cutoff for positive-scoring molecules 3-fold increase, read-out: AK-based Prestwick Library Screening Results, P. aeruginosa (increase in extracellular AK activity)); 0.9 in test [6] (50 μM final drug concentration, 384-well format, cutoff for positive-scoring molecules 3-fold increase, read-out: AK-based Prestwick Library Screening Results, A. baumannii (increase in extracellular AK activity)). The fold induction at 50 µM in test [7] (384-well format, cutoff for positive-scoring molecules 3-fold increase, read-out: AK-based Prestwick Library Screening Results, E. coli (increase in extracellular AK activity)) came to 0.9.
On to `CCC(=O)OCC(=O)[C@@]1(OC(=O)CC)[C@@H](C)C[C@H]2[C@@H]3CCC4=CC(=O)C=C[C@]4(C)[C@@]3(Cl)[C@@H](O)C[C@@]21C` [Beclomethasone dipropionate], for which the fold induction at 50 µM in test [1] (50 μM final drug concentration, cutoff for positive-scoring molecules 3-fold increase, read-out: AK-based Prestwick Library Screening Results, E. cloacae (fold increase in extracellular AK activity)) worked out at 1.5; in test [2] (50 μM final drug concentration, cutoff for positive-scoring molecules 3-fold increase, read-out: AK-based Prestwick Library Screening Results, S. aureus (fold increase in extracellular AK activity)), 0.5; in test [3] (50 μM final drug concentration, cutoff for positive-scoring molecules 3-fold increase, read-out: AK-based Prestwick Library Screening Results, E. faecium (fold increase in extracellular AK activity)), 1; in test [4] (50 μM final drug concentration, cutoff for positive-scoring molecules 3-fold increase, read-out: AK-based Prestwick Library Screening Results, K. pneumoniae (fold increase in extracellular AK activity)), 0.9; in test [5] (50 μM final drug concentration, cutoff for positive-scoring molecules 3-fold increase, read-out: AK-based Prestwick Library Screening Results, P. aeruginosa (fold increase in extracellular AK activity)) it was 1; in test [6] (50 μM final drug concentration, cutoff for positive-scoring molecules 3-fold increase, read-out: AK-based Prestwick Library Screening Results, A. baumannii (fold increase in extracellular AK activity)), 1. Besides, the fold induction at 50 µM in test [7] (cutoff for positive-scoring molecules 3-fold increase, read-out: AK-based Prestwick Library Screening Results, E. coli (fold increase in extracellular AK activity)) was 1.1.
In the case of `CN1CCC2(C)c3cc(O)ccc3N(C)C12.O=C(O)/C=C/C(=O)O` (single isomer, unassigned; (-)) [(−)-Eseroline fumarate salt], in test [1] (planktonic E. cloacae, 50 μM final drug concentration, […]), the “AK-based Prestwick library screening result, E. cloacae (fold increase in extracellular AK activity)” value is listed as 1.4. For the same compound, the “AK-based Prestwick library screening result, S. aureus (fold increase in extracellular AK activity)” value in test [2] (planktonic S. aureus, 50 μM final drug concentration, […]) was 0.9. Also, in test [3] (planktonic E. faecium, 50 μM final drug concentration, […]), the “AK-based Prestwick library screening result, E. faecium (fold increase in extracellular AK activity)” value stood at 1.1. In test [4] (planktonic K. pneumoniae, 50 μM final drug concentration, […]), the “AK-based Prestwick library screening result, K. pneumoniae (fold increase in extracellular AK activity)” value is recorded as 0.9. Moreover, the “AK-based Prestwick library screening result, P. aeruginosa (fold increase in extracellular AK activity)” value in test [5] (planktonic P. aeruginosa, 50 μM final drug concentration, […]) is 0.8. The “AK-based Prestwick library screening result, A. baumannii (fold increase in extracellular AK activity)” value in test [6] (planktonic A. baumannii, 50 μM final drug concentration, […]) was 0.9. The “AK-based Prestwick library screening result, E. coli (fold increase in extracellular AK activity)” value in test [7] (planktonic E. coli, […]) turned out to be 1.0.
As for `CCCCOC(=O)c1ccc(O)cc1` [Butylparaben], the fold induction at 50 µM was 1 in test [1] (50 μM final drug concentration, planktonic, […], read-out: AK-based Prestwick Library Screening Results, E. cloacae (fold increase in extracellular AK activity)); 0.7 in test [2] (50 μM final drug concentration, planktonic, […], read-out: AK-based Prestwick Library Screening Results, S. aureus (fold increase in extracellular AK activity)); 0.5 in test [3] (50 μM final drug concentration, planktonic, […], read-out: AK-based Prestwick Library Screening Results, E. faecium (fold increase in extracellular AK activity)); 0.4 in test [4] (50 μM final drug concentration, planktonic, […], read-out: AK-based Prestwick Library Screening Results, K. pneumoniae (fold increase in extracellular AK activity)); 0.6 in test [5] (50 μM final drug concentration, planktonic, […], read-out: AK-based Prestwick Library Screening Results, P. aeruginosa (fold increase in extracellular AK activity)); 0.6 in test [6] (50 μM final drug concentration, planktonic, […], read-out: AK-based Prestwick Library Screening Results, A. baumannii (fold increase in extracellular AK activity)). In addition, the fold induction at 50 µM in test [7] (planktonic, […], read-out: AK-based Prestwick Library Screening Results, E. coli (fold increase in extracellular AK activity)) was found to be 0.5.
Turning to `O=[N+]([O-])c1cc([As](=O)(O)O)ccc1O` [Roxarsone], the “AK-based Prestwick Library Screening Results, E. cloacae (fold increase in extracellular AK activity)” value in test [1] (setting [8]) was 0.5. Also, the “AK-based Prestwick Library Screening Results, S. aureus (fold increase in extracellular AK activity)” value in test [2] (setting [8]) came out at 0.6. The “AK-based Prestwick Library Screening Results, E. faecium (fold increase in extracellular AK activity)” value in test [3] (setting [8]) was 0.8. For the same compound, the “AK-based Prestwick Library Screening Results, K. pneumoniae (fold increase in extracellular AK activity)” value in test [4] (setting [8]) is 0.4. Besides, the “AK-based Prestwick Library Screening Results, P. aeruginosa (fold increase in extracellular AK activity)” value in test [5] (setting [8]) is on record as 0.5. For the same compound, the “AK-based Prestwick Library Screening Results, A. baumannii (fold increase in extracellular AK activity)” value in test [6] (setting [8]) worked out at 0.5. Moreover, the “AK-based Prestwick Library Screening Results, E. coli (fold increase in extracellular AK activity)” value in test [7] ([…]) amounted to 0.4.
In the case of `N=C(N)NCCN1CCCCCCC1` [Guanethidine sulfate], the fold induction at 50 µM in test [1] (planktonic E. cloacae, 50 μM final drug concentration, 384-well, […], read-out: AK-based Prestwick Library Screening Results: E. cloacae (increase in extracellular AK activity)) is 1.4; in test [2] (planktonic S. aureus, 50 μM final drug concentration, 384-well, […], read-out: AK-based Prestwick Library Screening Results: S. aureus (increase in extracellular AK activity)), 1.1; in test [3] (planktonic E. faecium, 50 μM final drug concentration, 384-well, […], read-out: AK-based Prestwick Library Screening Results: E. faecium (increase in extracellular AK activity)), 1.1; in test [4] (planktonic K. pneumoniae, 50 μM final drug concentration, 384-well, […], read-out: AK-based Prestwick Library Screening Results: K. pneumoniae (increase in extracellular AK activity)), 1.1; in test [5] (planktonic P. aeruginosa, 50 μM final drug concentration, 384-well, […], read-out: AK-based Prestwick Library Screening Results: P. aeruginosa (increase in extracellular AK activity)) it was 1.4; in test [6] (planktonic A. baumannii, 50 μM final drug concentration, 384-well, […], read-out: AK-based Prestwick Library Screening Results: A. baumannii (increase in extracellular AK activity)) it was 1.3. Moreover, in test [7] (planktonic E. coli, 384-well, […], read-out: AK-based Prestwick Library Screening Results: E. coli (increase in extracellular AK activity)), the fold induction at 50 µM was 1.4.
As to `O=C1OC(CN2CCOCC2)CN1/N=C/c1ccc([N+](=O)[O-])o1` (centres unmarked) [Furaltadone hydrochloride], the fold induction at 50 µM in test [1] (50 μM final drug concentration, planktonic, cutoff for positive-scoring molecules 3-fold increase, read-out: AK-based Prestwick Library Screening Results, E. cloacae (fold increase in extracellular AK activity)) stood at 1.7; in test [2] (50 μM final drug concentration, planktonic, cutoff for positive-scoring molecules 3-fold increase, read-out: AK-based Prestwick Library Screening Results, S. aureus (fold increase in extracellular AK activity)), 0.7; in test [3] (50 μM final drug concentration, planktonic, cutoff for positive-scoring molecules 3-fold increase, read-out: AK-based Prestwick Library Screening Results, E. faecium (fold increase in extracellular AK activity)), 1.1; in test [4] (50 μM final drug concentration, planktonic, cutoff for positive-scoring molecules 3-fold increase, read-out: AK-based Prestwick Library Screening Results, K. pneumoniae (fold increase in extracellular AK activity)), 2.6; in test [5] (50 μM final drug concentration, planktonic, cutoff for positive-scoring molecules 3-fold increase, read-out: AK-based Prestwick Library Screening Results, P. aeruginosa (fold increase in extracellular AK activity)), 1.1; in test [6] (50 μM final drug concentration, planktonic, cutoff for positive-scoring molecules 3-fold increase, read-out: AK-based Prestwick Library Screening Results, A. baumannii (fold increase in extracellular AK activity)), 1. In test [7] (planktonic, cutoff for positive-scoring molecules 3-fold increase, read-out: AK-based Prestwick Library Screening Results, E. coli (fold increase in extracellular AK activity)), the fold induction at 50 µM came out at 0.9.
As to `CCN1CCCC(OC(=O)C(c2ccccc2)c2ccccc2)C1` (centres unmarked) [Piperidolate hydrochloride], the fold induction at 50 µM was 0.7 in test [1] (read-out: AK-based Prestwick library screening result, E. cloacae (fold increase in extracellular AK activity)); 0.6 in test [2] (read-out: AK-based Prestwick library screening result, S. aureus (fold increase in extracellular AK activity)); 1 in test [3] (read-out: AK-based Prestwick library screening result, E. faecium (fold increase in extracellular AK activity)); 0.6 in test [4] (read-out: AK-based Prestwick library screening result, K. pneumoniae (fold increase in extracellular AK activity)); 0.7 in test [5] (read-out: AK-based Prestwick library screening result, P. aeruginosa (fold increase in extracellular AK activity)); 0.6 in test [6] (read-out: AK-based Prestwick library screening result, A. baumannii (fold increase in extracellular AK activity)). In test [7] (planktonic E. coli, positive cutoff 3-fold increase, read-out: AK-based Prestwick library screening result, E. coli (fold increase in extracellular AK activity)), the fold induction at 50 µM came to 0.7.
